{"source": "patent US7872004B2", "about": "“6-(heterocyclyl-substituted benzyl)-4-oxoquinoline compound and use thereof as HIV integrase inhibitor” (Japan Tobacco Inc., priority 2006, dated 2011)", "note": "pIC50: −log10 of the molar value.", "data": [{"molecular_target": "T1, HIV integrase (Human immunodeficiency virus type 1 group M subtype B, UniProt P12497, F1332H)", "T1 construct": "HIV integrase full length gene; made in house; host or cells: Escherichia coli BL21(DE3)", "assay": "Determination of enzyme (HIV integrase) inhibitory activity", "assay_type": "biochemical, HIV (Human Immunodeficiency Virus (type 1))", "conditions": "recombinant integrase protein (F185H), strand transfer plate assay, absorbance at 450 nm", "description": "The following explains evaluation methods of the HIV integrase inhibitory activity of the compound of the present invention.\n(i) Construction of Recombinant Integrase Gene Expression System\nHIV integrase full length gene (J. Virol., 67, 425-437 (1993)) in which phenylalanine at codon 185 was substituted by histidine, was inserted between the restriction enzyme NdeI and XhoI sites of plasmid pET21a(+) (Novagen), whereby an integrase expression vector pET21a-IN-F185H was constructed.\n(ii) Production and Purification of Integrase Protein\nEscherichia coli recombinant BL21(DE3) transformed with plasmid pET21a-IN-F185H obtained in (i) was shake cultured at 30° C. in a liquid medium containing ampicillin. When the culture reached the logarithmic growth phase, isopropyl-β-D-thiogalactopyranoside was added to promote expression of integrase gene. The culture was continued for 3 hr to promote accumulation of the integrase protein. The recombinant E. coli was collected in pellets by centrifugal separation and preserved at −80° C.\nThe E. coli was suspended in Lysis buffer ([…] HEPES (pH 7.5), 5 mM DTT, 10 mM CHAPS, 10% glycerol) containing 1M sodium chloride and subjected to repeat pressurization and depressurization for rupture, and centrifugal separation at 4° C., 40,000×g, 60 min to recover a water-soluble fraction (supernatant). This was diluted 10-fold with Lysis buffer free of sodium chloride, mixed with SP-Sepharose (GE healthcare Bioscience) and stirred at 4° C. for 60 min to allow adsorption of integrase protein to the resin. The resin was washed with Lysis buffer containing 100 mM sodium chloride and the integrase protein was eluted with Lysis buffer containing 1M sodium chloride.\nThe eluted integrase protein solution was subjected to a Superdex 75 (GE healthcare Bioscience) column for gel filtration. The protein was eluted with Lysis buffer containing 1M sodium chloride.\nThe obtained fractions of the integrase protein were collected and preserved at −80° C.\n(iii) Preparation of DNA Solution\nThe following DNA synthesized by Greiner or FASMAC was dissolved in TE buffer (10 mM Tris-hydrochloric acid (pH 8.0), 1 mM EDTA) and mixed with donor DNA, target DNA, and each complementary strand (+ and − strands) to 1 μM. The mixture was heated at 95° C. for 5 min, 80° C. for 10 min, 70° C. for 10 min, 60° C. for 10 min, 50° C. for 10 min and 40° C. for 10 min and kept at 25° C. to give a double stranded DNA, which was used for the test.\n(iv) Determination of Enzyme (HIV Integrase) Inhibitory Activity\nThe donor DNA was diluted with TE buffer to 10 nM (or 5 nM), of which 50 μl was added to each well of streptavidin-coated microtiter plate (Roche) and allowed to adsorb at 37° C. for 60 min. The plate was washed with phosphate buffer (Dulbecco's PBS, Sanko Junyaku Co., Ltd.) containing 0.1% Tween 20 and phosphate buffer. Then, an enzyme reaction mixture (70 μl), a test substance (10 μl) diluted with the enzyme reaction mixture and 100 μg/ml (or 64 μg/ml (2 μM)) integrase protein (10 μl) were added to each well and reacted at 37° C. for 60 min.\nComposition of the enzyme reaction mixture: 30 mM MOPS (3-morpholinopropanesulfonic acid), 5 mM magnesium chloride, 3 mM DTT (dithiothreitol), 0.1 mg/ml BSA (bovine serum albumin), 5% glycerol, 10% DMSO (dimethyl sulfoxide), 0.01% Tween 20.\nThen, 50 nM (or 25 nM) target DNA (10 μl) was added, reacted at 37° C. for 10 min and washed with phosphate buffer containing 0.1% Tween 20 to stop the reaction.\nThen, 100 mU/ml peroxidase labeled anti-digoxigenin antibody solution (Roche, 100 μl) was added, and the mixture was reacted at 37° C. for 60 min, followed by washing with phosphate buffer containing 0.1% Tween 20.\nA peroxidase color solution (Bio Rad, 100 μl) was added and allowed to react at room temperature for 4 min (or 3 min). The color reaction was stopped by adding IN sulfuric acid (100 μl). The absorbance at 450 nm was measured. […]", "values": [{"smiles": "CCOC[C@@H](CO)n1cc(C(=O)O)c(=O)c2cc(Cc3cc(N4CCOCC4)cc(Cl)c3F)c(CC)cc21", "note": "[Example 1, 6-[3-chloro-2-fluoro-5-(morpholin-4-yl)benzyl]-1-((R)-1-ethoxymethyl-2-hydroxyethyl)-7-ethyl-4-oxo-1,4-dihydroquinoline-3-carboxylic acid]", "pIC50": "> 8.00"}, {"smiles": "COc1cc2c(cc1Cc1cc(N3CCCC3=O)cc(Cl)c1F)c(=O)c(C(=O)O)cn2[C@H](CO)C(C)C", "note": "[Example 2, 6-[3-chloro-2-fluoro-5-(2-oxopyrrolidin-1-yl)benzyl]-1-((S)-1-hydroxymethyl-2-methylpropyl)-7-methoxy-4-oxo-1,4-dihydroquinoline-3-carboxylic acid]", "pIC50": "> 8.00"}, {"smiles": "COc1cc2c(cc1Cc1cc(N3CCCC3)cc(Cl)c1F)c(=O)c(C(=O)O)cn2[C@H](CO)C(C)C", "note": "[Example 3, 6-[3-chloro-2-fluoro-5-(pyrrolidin-1-yl)benzyl]-1-((S)-1-hydroxymethyl-2-methylpropyl)-7-methoxy-4-oxo-1,4-dihydroquinoline-3-carboxylic acid]", "pIC50": "> 8.00"}, {"smiles": "COc1cc2c(cc1Cc1cc(N3CCOC3=O)cc(Cl)c1F)c(=O)c(C(=O)O)cn2[C@H](CO)C(C)C", "note": "[Example 4, 6-[3-chloro-2-fluoro-5-(2-oxooxazolidin-3-yl)benzyl]-1-((S)-1-hydroxymethyl-2-methylpropyl)-7-methoxy-4-oxo-1,4-dihydroquinoline-3-carboxylic acid]", "pIC50": "> 8.00"}, {"smiles": "COc1cc2c(cc1Cc1cc(N3CCOCC3)cc(Cl)c1F)c(=O)c(C(=O)O)cn2[C@H](CO)C(C)C", "note": "[Example 5, 6-[3-chloro-2-fluoro-5-(morpholin-4-yl)benzyl]-1-((S)-1-hydroxymethyl-2-methylpropyl)-7-methoxy-4-oxo-1,4-dihydroquinoline-3-carboxylic acid]", "pIC50": "> 8.00"}, {"smiles": "COc1cc2c(cc1Cc1cc(N3CCCCC3)cc(Cl)c1F)c(=O)c(C(=O)O)cn2[C@H](CO)C(C)C", "note": "[Example 6, 6-[3-chloro-2-fluoro-5-(piperidin-1-yl)benzyl]-1-((S)-1-hydroxymethyl-2-methylpropyl)-7-methoxy-4-oxo-1,4-dihydroquinoline-3-carboxylic acid]", "pIC50": "> 8.00"}, {"smiles": "COc1cc2c(cc1Cc1cc(N3CCCCC3=O)cc(Cl)c1F)c(=O)c(C(=O)O)cn2[C@H](CO)C(C)C", "note": "[Example 7, 6-[3-chloro-2-fluoro-5-(2-oxopiperidin-1-yl)benzyl]-1-((S)-1-hydroxymethyl-2-methylpropyl)-7-methoxy-4-oxo-1,4-dihydroquinoline-3-carboxylic acid]", "pIC50": "> 8.00"}, {"smiles": "COc1cc2c(cc1Cc1cc(N3CC[C@@H](O)C3)cc(Cl)c1F)c(=O)c(C(=O)O)cn2[C@H](CO)C(C)C", "note": "[Example 8, 6-[3-chloro-2-fluoro-5-((R)-3-hydroxypyrrolidin-1-yl)benzyl]-1-((S)-1-hydroxymethyl-2-methylpropyl)-7-methoxy-4-oxo-1,4-dihydroquinoline-3-carboxylic acid]", "pIC50": "> 8.00"}, {"smiles": "COc1cc2c(cc1Cc1cc(N3CC[C@H](O)C3)cc(Cl)c1F)c(=O)c(C(=O)O)cn2[C@H](CO)C(C)C", "note": "[Example 9, 6-[3-chloro-2-fluoro-5-((S)-3-hydroxypyrrolidin-1-yl)benzyl]-1-((S)-1-hydroxymethyl-2-methylpropyl)-7-methoxy-4-oxo-1,4-dihydroquinoline-3-carboxylic acid]", "pIC50": "> 8.00"}, {"smiles": "COc1cc2c(cc1Cc1cc(N3CCC(=O)N3C)cc(Cl)c1F)c(=O)c(C(=O)O)cn2[C@H](CO)C(C)C", "note": "[Example 10, 6-[3-chloro-2-fluoro-5-(2-methyl-3-oxopyrazolidin-1-yl)benzyl]-1-((S)-1-hydroxymethyl-2-methylpropyl)-7-methoxy-4-oxo-1,4-dihydroquinoline-3-carboxylic acid]", "pIC50": "> 8.00"}, {"smiles": "COc1cc2c(cc1Cc1cc(N3CCN(C(C)=O)CC3)cc(Cl)c1F)c(=O)c(C(=O)O)cn2[C@H](CO)C(C)C", "note": "[Example 11, 6-[5-(4-acetylpiperazin-1-yl)-3-chloro-2-fluorobenzyl]-1-((S)-1-hydroxymethyl-2-methylpropyl)-7-methoxy-4-oxo-1,4-dihydroquinoline-3-carboxylic acid]", "pIC50": "> 8.00"}, {"smiles": "COc1cc2c(cc1Cc1cc(N3CCC(F)(F)C3)cc(Cl)c1F)c(=O)c(C(=O)O)cn2[C@H](CO)C(C)C", "note": "[Example 12, 6-[3-chloro-5-(3,3-difluoropyrrolidin-1-yl)-2-fluorobenzyl]-1-((S)-1-hydroxymethyl-2-methylpropyl)-7-methoxy-4-oxo-1,4-dihydroquinoline-3-carboxylic acid]", "pIC50": "> 8.00"}, {"smiles": "COc1cc2c(cc1Cc1cc(N3CC[C@@H](F)C3)cc(Cl)c1F)c(=O)c(C(=O)O)cn2[C@H](CO)C(C)C", "note": "[Example 13, 6-[3-chloro-2-fluoro-5-((R)-3-fluoropyrrolidin-1-yl)benzyl]-1-((S)-1-hydroxymethyl-2-methylpropyl)-7-methoxy-4-oxo-1,4-dihydroquinoline-3-carboxylic acid]", "pIC50": "> 8.00"}, {"smiles": "COc1cc2c(cc1Cc1cc(N3CC[C@H](F)C3)cc(Cl)c1F)c(=O)c(C(=O)O)cn2[C@H](CO)C(C)C", "note": "[Example 14, 6-[3-chloro-2-fluoro-5-((S)-3-fluoropyrrolidin-1-yl)benzyl]-1-((S)-1-hydroxymethyl-2-methylpropyl)-7-methoxy-4-oxo-1,4-dihydroquinoline-3-carboxylic acid]", "pIC50": "> 8.00"}, {"smiles": "COc1cc2c(cc1Cc1cc(N3CCOCC3)cc(Cl)c1F)c(=O)c(C(=O)O)cn2[C@H](CO)[C@@H](C)OC", "note": "[Example 15, 6-[3-chloro-2-fluoro-5-(morpholin-4-yl)benzyl]-1-((1R,2R)-1-hydroxymethyl-2-methoxypropyl)-7-methoxy-4-oxo-1,4-dihydroquinoline-3-carboxylic acid]", "pIC50": "> 8.00"}, {"smiles": "COc1cc2c(cc1Cc1cc(N3CCOCC3)c(F)c(Cl)c1F)c(=O)c(C(=O)O)cn2[C@H](CO)C(C)C", "note": "[Example 16, 6-[3-chloro-2,4-difluoro-5-(morpholin-4-yl)benzyl]-1-((S)-1-hydroxymethyl-2-methylpropyl)-7-methoxy-4-oxo-1,4-dihydroquinoline-3-carboxylic acid]", "pIC50": "> 8.00"}, {"smiles": "COc1cc2c(cc1Cc1cc(N3CCOCC3)cc(Cl)c1F)c(=O)c(C(=O)O)cn2[C@H](CO)C(C)(C)C", "note": "[Example 17, 6-[3-chloro-2-fluoro-5-(morpholin-4-yl)benzyl]-1-((S)-1-hydroxymethyl-2,2-dimethylpropyl)-7-methoxy-4-oxo-1,4-dihydroquinoline-3-carboxylic acid]", "pIC50": "> 8.00"}, {"smiles": "CCc1cc2c(cc1Cc1cc(N3CCOCC3)cc(Cl)c1F)c(=O)c(C(=O)O)cn2[C@H](CO)C(C)(C)C", "note": "[Example 18, 6-[3-chloro-2-fluoro-5-(morpholin-4-yl)benzyl]-7-ethyl-1-((S)-1-hydroxymethyl-2,2-dimethylpropyl)-4-oxo-1,4-dihydroquinoline-3-carboxylic acid]", "pIC50": "> 8.00"}, {"smiles": "CCOC[C@@H](CO)n1cc(C(=O)O)c(=O)c2cc(Cc3cc(N4CCOCC4)cc(Cl)c3F)c(OC)cc21", "note": "[Example 19, 6-[3-chloro-2-fluoro-5-(morpholin-4-yl)benzyl]-1-((R)-1-ethoxymethyl-2-hydroxyethyl)-7-methoxy-4-oxo-1,4-dihydroquinoline-3-carboxylic acid]", "pIC50": "> 8.00"}]}]}
